Molecular target: T1, human OX2 receptor (Homo sapiens, UniProt O43614)
T1 construct: expressed in transfected cells
T1 sequence (O43614 1-444): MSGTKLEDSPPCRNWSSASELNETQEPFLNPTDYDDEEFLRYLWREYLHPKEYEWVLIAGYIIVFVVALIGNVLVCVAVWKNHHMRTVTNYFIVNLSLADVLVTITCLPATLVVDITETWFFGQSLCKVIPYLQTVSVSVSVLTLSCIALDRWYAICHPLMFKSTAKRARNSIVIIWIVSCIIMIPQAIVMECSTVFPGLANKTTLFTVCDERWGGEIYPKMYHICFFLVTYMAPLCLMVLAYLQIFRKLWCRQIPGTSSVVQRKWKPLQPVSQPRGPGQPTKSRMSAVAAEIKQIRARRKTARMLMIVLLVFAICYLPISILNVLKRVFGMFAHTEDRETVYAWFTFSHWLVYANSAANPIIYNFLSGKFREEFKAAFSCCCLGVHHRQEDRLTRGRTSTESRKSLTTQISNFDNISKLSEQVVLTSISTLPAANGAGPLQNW
Assay: Measurement of orexin type 2 receptor agonist activity (calcium fluorescence, Fluo-4, FDSS)
Format: cell-based
Conditions: 3 uM test compound; CHO cells expressing human OX2 receptor; DMSO = 0%, 10 nM orexin A (human) = 100%
Outline: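 Agonist activity (%) was normalised to the response to 10 nM final human orexin A (100%) and to the DMSO vehicle (0%). The response was measured as the Fluo-4 calcium signal, read kinetically over 1 min 40 s after compound addition to Fluo-4/probenecid-loaded stable CHO-K1 clones expressing human OX2 (aa 1-444).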

Compound | OX2R agonist activity (3 uM, %) [%]
CCS(=O)(=O)N[C@@H]1CN2C(=O)N(c3noc4cc(C(F)F)cc(-c5c(F)cc(F)cc5F)c34)C[C@@H]2C1(F)F [Example 298, N-{(6R,7aR)-2-[6-(difluoromethyl)-4-(2,4,6-trifluorophenyl)-1,2-benzoxazol-3-yl]-7,7-difluoro-3-oxohexahydro-1H-pyrrolo[1,2-c]imidazol-6-yl}ethanesulfonamide] | 105
CCOc1cc(-c2c(F)cccc2F)c2c(N3CC[C@H]4N(C[C@@H](NS(=O)(=O)CC)C4(F)F)C3=O)noc2c1 [Example 299, N-{(4aR,6R)-2-[4-(2,6-difluorophenyl)-6-ethoxy-1,2-benzoxazol-3-yl]-5,5-difluoro-1-oxooctahydropyrrolo[1,2-c]pyrimidin-6-yl}ethanesulfonamide] | 104
CCOc1cc(-c2c(F)cccc2F)c2c(N3CC[C@H]4N(C[C@@H](NS(=O)(=O)C5CC5)C4(F)F)C3=O)noc2c1 [Example 300, N-{(4aR,6R)-2-[4-(2,6-difluorophenyl)-6-ethoxy-1,2-benzoxazol-3-yl]-5,5-difluoro-1-oxooctahydropyrrolo[1,2-c]pyrimidin-6-yl}cyclopropanesulfonamide] | 105
CNS(=O)(=O)N[C@@H]1Cn2c(cn(-c3noc4ccc(F)c(-c5c(F)cc(F)cc5F)c34)c2=O)C1(F)F [Example 301, N-{(6R)-7,7-difluoro-2-[5-fluoro-4-(2,4,6-trifluorophenyl)-1,2-benzoxazol-3-yl]-3-oxo-2,5,6,7-tetrahydro-3H-pyrrolo[1,2-c]imidazol-6-yl}-N′-methylsulfuric diamide] | 98
CNS(=O)(=O)N[C@@H]1Cn2c(cn(-c3noc4cc(C)nc(-c5c(F)cccc5F)c34)c2=O)C1(F)F [Example 302, N-{(6R)-2-[4-(2,6-difluorophenyl)-6-methyl[1,2]oxazolo[4,5-c]pyridin-3-yl]-7,7-difluoro-3-oxo-2,5,6,7-tetrahydro-3H-pyrrolo[1,2-c]imidazol-6-yl}-N′-methylsulfuric diamide] | 103
CCS(=O)(=O)N[C@@H]1CN2C(=O)N(c3noc4cc(OC(F)F)cc(-c5c(F)cc(F)cc5F)c34)CC[C@@H]2C1(F)F [Example 303, N-{(4aR,6R)-2-[6-(difluoromethoxy)-4-(2,4,6-trifluorophenyl)-1,2-benzoxazol-3-yl]-5,5-difluoro-1-oxooctahydropyrrolo[1,2-c]pyrimidin-6-yl}ethanesulfonamide] | 103
CCS(=O)(=O)N[C@@H]1CN2C(=O)N(c3noc4cc(F)c(F)c(-c5c(F)cc(F)cc5F)c34)CC[C@@H]2C1(F)F [Example 304, N-{(4aR,6R)-2-[5,6-difluoro-4-(2,4,6-trifluorophenyl)-1,2-benzoxazol-3-yl]-5,5-difluoro-1-oxooctahydropyrrolo[1,2-c]pyrimidin-6-yl}ethanesulfonamide] | 117
O=C1N(c2noc3cc(F)c(F)c(-c4c(F)cc(F)cc4F)c23)CC[C@H]2N1C[C@@H](NS(=O)(=O)C1CC1)C2(F)F [Example 305, N-{(4aR,6R)-2-[5,6-difluoro-4-(2,4,6-trifluorophenyl)-1,2-benzoxazol-3-yl]-5,5-difluoro-1-oxooctahydropyrrolo[1,2-c]pyrimidin-6-yl}cyclopropanesulfonamide] | 113
O=c1n(-c2noc3cc(C(F)F)cc(-c4c(F)cccc4F)c23)cc2n1C[C@@H](NS(=O)(=O)CF)C2(F)F [Example 306, N-{(6R)-2-[6-(difluoromethyl)-4-(2,6-difluorophenyl)-1,2-benzoxazol-3-yl]-7,7-difluoro-3-oxo-2,5,6,7-tetrahydro-3H-pyrrolo[1,2-c]imidazol-6-yl}-1-fluoromethanesulfonamide] | 101
CCOc1cc(-c2c(F)cc(F)cc2F)c2c(N3CC[C@H]4N(C[C@@H](NS(=O)(=O)CC)C4(F)F)C3=O)noc2c1 [Example 307, N-{(4aR,6R)-2-[6-ethoxy-4-(2,4,6-trifluorophenyl)-1,2-benzoxazol-3-yl]-5,5-difluoro-1-oxooctahydropyrrolo[1,2-c]pyrimidin-6-yl}ethanesulfonamide] | 101
COc1cc(-c2c(F)cc(F)cc2F)c2c(N3CC[C@H]4N(C[C@@H](NS(=O)(=O)C5CC5)C4(F)F)C3=O)noc2n1 [Example 308, N-{(4aR,6R)-5,5-difluoro-2-[6-methoxy-4-(2,4,6-trifluorophenyl)[1,2]oxazolo[5,4-b]pyridin-3-yl]-1-oxooctahydropyrrolo[1,2-c]pyrimidin-6-yl}cyclopropanesulfonamide] | 100
CCS(=O)(=O)N[C@@H]1Cn2c(cn(-c3noc4nc(OC)cc(-c5c(F)cc(F)cc5F)c34)c2=O)C1(F)F [Example 309, N-{(6R)-7,7-difluoro-2-[6-methoxy-4-(2,4,6-trifluorophenyl)[1,2]oxazolo[5,4-b]pyridin-3-yl]-3-oxo-2,5,6,7-tetrahydro-3H-pyrrolo[1,2-c]imidazol-6-yl}ethanesulfonamide] | 107
CNS(=O)(=O)N[C@@H]1CN2C(=O)N(c3noc4cc(F)cc(-c5c(F)cccc5F)c34)C[C@@H]2C1(F)F [Example 310, N-{(6R,7aR)-2-[4-(2,6-difluorophenyl)-6-fluoro-1,2-benzoxazol-3-yl]-7,7-difluoro-3-oxohexahydro-1H-pyrrolo[1,2-c]imidazol-6-yl}-N′-methylsulfuric diamide] | 100
CCS(=O)(=O)N[C@@H]1CN2C(=O)N(c3noc4cc(F)c(F)c(-c5c(F)cccc5F)c34)CC[C@@H]2C1(F)F [Example 311, N-{(4aR,6R)-2-[4-(2,6-difluorophenyl)-5,6-difluoro-1,2-benzoxazol-3-yl]-5,5-difluoro-1-oxooctahydropyrrolo[1,2-c]pyrimidin-6-yl}ethanesulfonamide] | 99
O=C1N(c2noc3cc(F)c(F)c(-c4c(F)cccc4F)c23)CC[C@H]2N1C[C@@H](NS(=O)(=O)C1CC1)C2(F)F [Example 312, N-{(4aR,6R)-2-[4-(2,6-difluorophenyl)-5,6-difluoro-1,2-benzoxazol-3-yl]-5,5-difluoro-1-oxooctahydropyrrolo[1,2-c]pyrimidin-6-yl}cyclopropanesulfonamide] | 100
O=C1N(c2noc3cc(F)c(F)c(-c4c(F)cccc4F)c23)CC[C@H]2N1C[C@@H](NS(=O)(=O)CF)C2(F)F [Example 313, N-{(4aR,6R)-2-[4-(2,6-difluorophenyl)-5,6-difluoro-1,2-benzoxazol-3-yl]-5,5-difluoro-1-oxooctahydropyrrolo[1,2-c]pyrimidin-6-yl}-1-fluoromethanesulfonamide] | 99
CS(=O)(=O)N[C@@H]1CN2C(=O)N(c3noc4cc(F)cc(-c5c(F)cccc5F)c34)CC[C@@H]2C1(F)F [Example 314, N-{(4aR,6R)-2-[4-(2,6-difluorophenyl)-6-fluoro-1,2-benzoxazol-3-yl]-5,5-difluoro-1-oxooctahydropyrrolo[1,2-c]pyrimidin-6-yl}methanesulfonamide] | 113
CCS(=O)(=O)N[C@@H]1CN2C(=O)N(c3noc4nc(OC)cc(-c5c(F)cc(F)cc5F)c34)CC[C@@H]2C1(F)F [Example 315, N-{(4aR,6R)-5,5-difluoro-2-[6-methoxy-4-(2,4,6-trifluorophenyl)[1,2]oxazolo[5,4-b]pyridin-3-yl]-1-oxooctahydropyrrolo[1,2-c]pyrimidin-6-yl}ethanesulfonamide] | 105
O=C1N(c2noc3cc(OC(F)F)cc(-c4c(F)cc(F)cc4F)c23)CC[C@H]2N1C[C@@H](NS(=O)(=O)C1CC1)C2(F)F [Example 316, N-{(4aR,6R)-2-[6-(difluoromethoxy)-4-(2,4,6-trifluorophenyl)-1,2-benzoxazol-3-yl]-5,5-difluoro-1-oxooctahydropyrrolo[1,2-c]pyrimidin-6-yl}cyclopropanesulfonamide] | 105
CS(=O)(=O)N[C@H]1C[C@H]2CCN(c3noc4cccc(-c5c(F)cccc5F)c34)C(=O)N2C1 [Example 317, N-{(4aR,6S)-2-[4-(2,6-difluorophenyl)-1,2-benzoxazol-3-yl]-1-oxooctahydropyrrolo[1,2-c]pyrimidin-6-yl}methanesulfonamide] | 110
O=C1N(c2noc3cc(F)cc(-c4ncc(F)cc4F)c23)CC[C@H]2N1C[C@@H](NS(=O)(=O)C1CC1)C2(F)F [Example 318, N-{(4aR,6R)-2-[4-(3,5-difluoropyridin-2-yl)-6-fluoro-1,2-benzoxazol-3-yl]-5,5-difluoro-1-oxooctahydropyrrolo[1,2-c]pyrimidin-6-yl}cyclopropanesulfonamide] | 105
O=C1N(c2noc3cccc(-c4ncc(F)cc4F)c23)CC[C@H]2N1C[C@@H](NS(=O)(=O)C1CC1)C2(F)F [Example 319, N-{(4aR,6R)-2-[4-(3,5-difluoropyridin-2-yl)-1,2-benzoxazol-3-yl]-5,5-difluoro-1-oxooctahydropyrrolo[1,2-c]pyrimidin-6-yl}cyclopropanesulfonamide] | 107

Reference: patent US11987586B1 (TAKEDA PHARMACEUTICAL COMPANY LIMITED, priority 2022, dated 2024)
